Test results from patent US20190231751A1, “TREATMENT OF FIBROTIC DISORDERS WITH JUN N-TERMINAL KINASE INHIBITORS” (Imago Pharmaceuticals, Inc., priority 2016, published 2019).

Columns and labels:
JNK3 = JNK3 (Homo sapiens, UniProt P53779); experiment: In vitro JNK3 inhibition (Table 1); assay type: biochemical
Description: (§1) In vitro assays for the determination of JNK activities are known in the art and exemplary assay formats are described herein.
(§2) IC50 values in Table 1 were determined using the procedures as described in U.S. Pat. No. 8,450,353.

JNK1 = JNK1 (Homo sapiens, UniProt P45983); experiment: In vitro JNK1 inhibition (Table 1); assay type: biochemical
Description: as §1, §2

Sequence of JNK3 (P53779 whole entry, species assumed): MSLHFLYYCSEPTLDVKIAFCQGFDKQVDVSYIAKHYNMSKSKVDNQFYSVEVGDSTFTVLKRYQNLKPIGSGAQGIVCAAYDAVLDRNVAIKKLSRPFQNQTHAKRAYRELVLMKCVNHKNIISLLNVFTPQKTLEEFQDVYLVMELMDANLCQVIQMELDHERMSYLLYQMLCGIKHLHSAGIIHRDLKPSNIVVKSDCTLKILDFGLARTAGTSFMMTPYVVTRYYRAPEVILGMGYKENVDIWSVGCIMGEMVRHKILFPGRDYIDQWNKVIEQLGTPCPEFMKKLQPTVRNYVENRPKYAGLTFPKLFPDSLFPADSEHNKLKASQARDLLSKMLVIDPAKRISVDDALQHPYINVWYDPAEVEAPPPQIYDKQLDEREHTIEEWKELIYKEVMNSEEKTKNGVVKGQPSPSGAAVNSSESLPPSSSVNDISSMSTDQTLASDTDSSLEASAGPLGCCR
Sequence of JNK1 (P45983 whole entry, species assumed): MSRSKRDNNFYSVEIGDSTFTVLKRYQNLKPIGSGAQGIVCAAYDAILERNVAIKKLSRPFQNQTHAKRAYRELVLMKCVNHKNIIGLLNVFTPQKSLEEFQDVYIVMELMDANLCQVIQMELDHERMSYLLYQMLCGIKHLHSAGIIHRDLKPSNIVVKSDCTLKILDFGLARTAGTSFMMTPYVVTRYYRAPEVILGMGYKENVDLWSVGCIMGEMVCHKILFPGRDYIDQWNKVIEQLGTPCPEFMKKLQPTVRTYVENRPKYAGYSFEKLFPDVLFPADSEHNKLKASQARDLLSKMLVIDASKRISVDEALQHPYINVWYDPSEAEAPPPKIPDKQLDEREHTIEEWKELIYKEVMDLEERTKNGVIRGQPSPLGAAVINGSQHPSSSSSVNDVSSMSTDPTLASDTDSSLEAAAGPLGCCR

SMILES | IC50 (JNK3) | IC50 (JNK1)
O=C(Cc1cc(F)cc2ncccc12)Nc1scc(Br)c1-c1ncn[nH]1 [N-(4-bromo-3-(1H-1,2,4-triazol-5-yl)thiophen-2-yl)-2-(7-fluoroquinolin-5-yl)acetamide] | < 100 nM | < 100 nM
O=C(Cc1cc2ncccc2cc1F)Nc1scc(Br)c1-c1ncn[nH]1 [N-(4-bromo-3-(1H-1,2,4-triazol-5-yl)thiophen-2-yl)-2-(6-fluoroquinolin-7-yl)acetamide] |  | < 100 nM
O=C(Cc1ccc(F)c2ncccc12)Nc1scc(Br)c1-c1ncn[nH]1 [N-(4-bromo-3-(1H-1,2,4-triazol-5-yl)thiophen-2-yl)-2-(8-fluoroquinolin-5-yl)acetamide] | < 100 nM | < 100 nM
O=C(Cc1cccc2cc(F)cnc12)Nc1scc(Br)c1-c1nc[nH]n1 [N-(4-bromo-3-(1H-1,2,4-triazol-3-yl)thiophen-2-yl)-2-(3-fluoroquinolin-8-yl)acetamide] |  | < 100 nM
CC(C)c1n[nH]c(-c2c(Cl)csc2NC(=O)CN2C(=O)CCc3ncccc32)n1 [N-(4-chloro-3-(3-isopropyl-1H-1,2,4-triazol-5-yl)thiophen-2-yl)-2-(2-oxo-3,4-dihydro-1,5-naphthyridin-1(2H)-yl)acetamide] |  | < 100 nM
O=C(Cn1c(=O)ccc2cnccc21)Nc1ccsc1-c1cscn1 [2-(2-oxo-1,6-naphthyridin-1(2H)-yl)-N-(2-(thiazol-4-yl)thiophen-3-yl)acetamide] |  | < 100 nM
COc1ccc(CC(=O)Nc2ccsc2-c2c[nH]c(C)n2)cc1 [2-(4-methoxyphenyl)-N-(2-(2-methyl-1H-imidazol-4-yl)thiophen-3-yl)acetamide] | > 10000 nM | > 10000 nM
Cn1ccc(-c2sccc2NC(=O)Cc2cccc3ccccc23)n1 [N-(2-(1-methyl-1H-pyrazol-3-yl)thiophen-3-yl)-2-(naphthalen-1-yl)acetamide] | > 10000 nM | > 10000 nM
O=C(Cc1ccnc2ccccc12)Nc1scc(Br)c1-c1nnc[nH]1 [N-(4-bromo-3-(4H-1,2,4-triazol-3-yl)thiophen-2-yl)-2-(quinolin-4-yl)acetamide] | < 100 nM | < 100 nM
COCn1nnnc1-c1ccsc1NC(=O)Cc1ccc(OC)cc1 [N-(3-(1-(methoxymethyl)-1H-tetrazol-5-yl)thiophen-2-yl)-2-(4-methoxyphenyl)acetamide] | 100 to 10000 nM | 100 to 10000 nM
COc1ccc(CC(=O)Nc2ccsc2-c2c[nH]cn2)cc1 [N-(2-(1H-imidazol-4-yl)thiophen-3-yl)-2-(4-methoxyphenyl)-acetamide] | > 10000 nM | > 10000 nM
O=C(Cc1cccc2nccn12)Nc1scc(Br)c1-c1ncn[nH]1 [N-(4-bromo-3-(1H-1,2,4-triazol-5-yl)thiophen-2-yl)-2-(imidazo[1,2-a]pyridin-5-yl)acetamide] |  | < 100 nM
Cc1n[nH]c(-c2c(C)csc2NC(=O)Cc2cccc3ncccc23)n1 [N-(4-methyl-3-(3-methyl-1H-1,2,4-triazol-5-yl)thiophen-2-yl)-2-(quinolin-5-yl)acetamide] | < 100 nM | < 100 nM
COc1ccc(CC(=O)Nc2ccsc2N2CCOC2=O)cc1 [2-(4-methoxyphenyl)-N-(2-(2-oxooxazolidin-3-yl)thiophen-3-yl)acetamide] | > 10000 nM | 
COc1ccc(CC(=O)Nc2ccsc2-c2nc(-c3ccncc3)n[nH]2)cc1 [2-(4-methoxyphenyl)-N-(2-(3-(pyridin-4-yl)-1H-1,2,4-triazol-5-yl)thiophen-3-yl)acetamide] | > 10000 nM | 
O=C(CN1C(=O)C(F)(F)c2ccccc21)Nc1scc(Br)c1-c1nnc[nH]1 [N-(4-bromo-3-(4H-1,2,4-triazol-3-yl)thiophen-2-yl)-2-(3,3-difluoro-2-oxoindolin-1-yl)acetamide] |  | < 100 nM

SMILES | IC50 (JNK3) | IC50 (JNK1)
O=C(Cc1cccc2ncc(C(F)(F)F)cc12)Nc1scc(Br)c1-c1nc[nH]n1 [N-(4-bromo-3-(1H-1,2,4-triazol-3-yl)thiophen-2-yl)-2-(3-(trifluoromethyl)quinolin-5-yl)acetamide] | < 100 nM | < 100 nM
O=C(Cc1cccc2ncsc12)Nc1scc(Br)c1-c1ncn[nH]1 [2-(benzo[d]thiazol-7-yl)-N-(4-bromo-3-(1H-1,2,4-triazol-5-yl)thiophen-2-yl)acetamide] | < 100 nM | < 100 nM
O=C(Cn1c(=O)ccc2c(C(F)(F)F)cccc21)Nc1scc(Br)c1-c1ncn[nH]1 [N-(4-bromo-3-(1H-1,2,4-triazol-5-yl)thiophen-2-yl)-2-(2-oxo-5-(trifluoromethyl)quinolin-1(2H)-yl)acetamide] | < 100 nM | < 100 nM
Cc1nnc(-c2c(C)csc2NC(=O)Cc2ccc(-c3ccncc3)cc2)[nH]1 [N-(4-methyl-3-(5-methyl-4H-1,2,4-triazol-3-yl)thiophen-2-yl)-2-(4-(pyridin-4-yl)phenyl)acetamide] | 100 to 10000 nM | 
COc1ccc(CC(=O)Nc2ccsc2-n2nccn2)cc1 [N-(2-(2H-1,2,3-triazol-2-yl)thiophen-3-yl)-2-(4-methoxyphenyl)acetamide] | 100 to 10000 nM | 100 to 10000 nM
Cc1nc(-c2sccc2NC(=O)Cc2cccc3ccccc23)n(C)n1 [N-(2-(1,3-dimethyl-1H-1,2,4-triazol-5-yl)thiophen-3-yl)-2-(naphthalen-1-yl)acetamide] | > 10000 nM | > 10000 nM
COc1ccc(CC(=O)Nc2ccsc2-n2cncn2)cc1 [N-(2-(1H-1,2,4-triazol-1-yl)thiophen-3-yl)-2-(4-methoxyphenyl)acetamide] | > 10000 nM | > 10000 nM
COc1ccc(CC(=O)Nc2ccsc2-n2cccn2)cc1 [N-(2-(1H-pyrazol-1-yl)thiophen-3-yl)-2-(4-methoxyphenyl)-acetamide] | > 10000 nM | > 10000 nM
O=C(CN1C(=O)CCc2ncccc21)Nc1scc(Br)c1-c1nccs1 [N-(4-bromo-3-(thiazol-2-yl)thiophen-2-yl)-2-(2-oxo-3,4-dihydro-1,5-naphthyridin-1(2H)-yl)acetamide] | < 100 nM | < 100 nM
O=C(Cc1cccc2ccncc12)Nc1scc(Br)c1-c1ncn[nH]1 [N-(4-bromo-3-(1H-1,2,4-triazol-5-yl)thiophen-2-yl)-2-(isoquinolin-8-yl)acetamide] | < 100 nM | < 100 nM
O=C(Cn1c(=O)ccc2cc(F)c(F)cc21)Nc1sccc1-c1ncon1 [N-(3-(1,2,4-oxadiazol-3-yl)thiophen-2-yl)-2-(6,7-difluoro-2-oxoquinolin-1(2H)-yl)acetamide] |  | < 100 nM
Cc1cn2c(CC(=O)Nc3scc(Br)c3-c3ncn[nH]3)csc2n1 [N-(4-bromo-3-(1H-1,2,4-triazol-5-yl)thiophen-2-yl)-2-(6-methylimidazo[2,1-b]thiazol-3-yl)acetamide] |  | < 100 nM
O=C(Cc1cccc2ccccc12)Nc1ccsc1-n1ccnc1 [N-(2-(1H-imidazol-1-yl)thiophen-3-yl)-2-(naphthalen-1-yl)acetamide] | 100 to 10000 nM | 
O=C(CN1C(=O)CCc2ccccc21)Nc1sccc1-c1ncn[nH]1 [N-(3-(1H-1,2,4-triazol-5-yl)thiophen-2-yl)-2-(2-oxo-3,4-dihydroquinolin-1(2H)-yl)acetamide] |  | < 100 nM
O=C(Cc1ccc(C(F)(F)F)c2ncccc12)Nc1scc(Cl)c1-c1ncn[nH]1 [N-(4-chloro-3-(1H-1,2,4-triazol-5-yl)thiophen-2-yl)-2-(8-(trifluoromethyl)quinolin-5-yl)acetamide] |  | < 100 nM
